SMILES strings stand for the structures. *1 amine or outer side, *2 acyl side, *3 side chain or, on linkers, in order; H or OH if unused. Where a SMILES comes first, the peptide text is derived from it. Bridges are numbered along the chain shown (N, C = ends). [ ]: non-standard residue; d: D form. NMeNva(5-imidazol-1-yl) = CN[C@@H](CCCn1ccnc1)C(=O)O; Ala(pyrimidin-5-yl) = N[C@@H](Cc1cncnc1)C(=O)O; X36 = CN([C@@H](Cc1cnn(C)c1)C(=O)[*:2])[*:1]; Ala(thiazol-5-yl) = N[C@@H](Cc1cncs1)C(=O)O; NMePhe(3-Me) = CN[C@@H](Cc1cccc(C)c1)C(=O)O; NMePhe(4-Me) = CN[C@@H](Cc1ccc(C)cc1)C(=O)O; X3 = CN([C@@H](Cc1cncnc1)C(=O)[*:2])[*:1]; X11 = CC(C)(F)CC[C@H](N[*:1])C(=O)[*:2]; NMeAha = CN[C@@H](CCN=[N+]=[N-])C(=O)O; X2 = O=C([C@H](Cc1ccccc1F)O[*:1])[*:2]; X40 = CC(C)(F)C[C@H](N[*:1])C(=O)[*:2]; X21 = O=C([C@@H]1C[C@H]1CN[*:1])[*:2]; Phe(2-F) = N[C@@H](Cc1ccccc1F)C(=O)O; Abu(4,4-F2) = N[C@@H](CC(F)F)C(=O)O; Gly(octyl) = CCCCCCCC[C@H](N)C(=O)O; NMe3Pal = CN[C@@H](Cc1cccnc1)C(=O)O; X1 = O=C(C12CC(CN[*:1])(C1)C2)[*:2]; X56 = O=C(C12CC(N[*:1])(C1)C2)[*:2]; Ala(cPr) = N[C@@H](CC1CC1)C(=O)O; NMeF = CN[C@@H](Cc1ccccc1)C(=O)O; PhLac = O=C(O)[C@@H](O)Cc1ccccc1; X9 = CCCC[C@H](O[*:1])C(=O)[*:2]; 3Pal = N[C@@H](Cc1cccnc1)C(=O)O; d3Pal = N[C@H](Cc1cccnc1)C(=O)O; Ahp(2) = CCCCC[C@H](N)C(=O)O; Cba = N[C@@H](CC1CCC1)C(=O)O; hLeu = CC(C)CC[C@H](N)C(=O)O; hLys = NCCCCC[C@H](N)C(=O)O; NMeS = CN[C@@H](CO)C(=O)O; αMeC = C[C@](N)(CS)C(=O)O; NMeA = CN[C@@H](C)C(=O)O; Nle = CCCC[C@H](N)C(=O)O

In the experiment the target is KRAS-G12D protein (Homo sapiens, UniProt P01116, G12D). In words: SOS-mediated nucleotide exchange assay (BODIPY-GDP / Tb-streptavidin TR-FRET). The experiment is classed as biochemical. On the technique in general: In TR-FRET formats the signal depends on donor and acceptor labels being close together.
Chain of KRAS-G12D protein (P01116 1-188 isoform P01116-2 G12D): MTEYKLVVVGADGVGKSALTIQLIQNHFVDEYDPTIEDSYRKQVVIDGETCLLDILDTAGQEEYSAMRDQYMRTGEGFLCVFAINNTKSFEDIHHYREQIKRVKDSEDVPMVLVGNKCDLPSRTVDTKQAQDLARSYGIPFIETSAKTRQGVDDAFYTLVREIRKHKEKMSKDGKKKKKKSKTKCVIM
Usually EC50 stands for the concentration giving half of the maximal effect. Turning to `CCC[C@@H]1NC(=O)[C@H](Cc2ccc(O)cc2)NC(=O)[C@H](CC(C)C)NC(=O)[C@H](Cc2ccc(O)cc2)NC(=O)[C@H](CCCNC(=N)N)NC(=O)[C@H](Cc2ccccc2)NC(=O)CSC[C@H](C(N)=O)NC(=O)[C@H](Cc2ccccc2)N(C)C1=O` [compound 21, cyclo(F-R-Y-L-Y-Nva-NMeF-dCl-ClAc)], the 50% effective concentration (EC50) came out at 6.42 µM.

For the molecule `Cc1cccc(C[C@H]2C(=O)NCC34CC(C3)(C4)C(=O)O[C@@H](Cc3ccccc3)C(=O)N(C)[C@@H](C)C(=O)N[C@@H](Cc3cncnc3)C(=O)N[C@@H](CC3CC3)C(=O)N[C@@H](Cc3ccccc3F)C(=O)N[C@@H](CCC(C)(C)F)C(=O)N2C)c1` [compound 274, cyclo(FLac-NMeA-PyrimAla-cPrA-Phe2F-hL3F-NMePhe3Me-amBCP)] (cyclo([Ala(cPr)][Phe(2-F)][X11][NMePhe(3-Me)][X1][PhLac][NMeA][Ala(pyrimidin-5-yl)])), the half-maximal effective concentration (EC50) was 0.001 µM.

For the molecule `CCCC[C@@H]1NC(=O)[C@H](Cc2cncnc2)NC(=O)[C@H](CO)N(C)C(=O)[C@H](Cc2ccccc2)OC(=O)C23CC(CNC(=O)[C@H](Cc4cccnc4)N(C)C(=O)[C@H](CCCC)NC(=O)[C@H](Cc4ccccc4F)NC1=O)(C2)C3` [compound 119, cyclo(FLac-NMeS-PyrimAla-Nle-Phe2F-Nle-NMe3Pal-amBCP)] (cyclo([NMe3Pal][X1][PhLac][NMeS][Ala(pyrimidin-5-yl)][Nle][Phe(2-F)][Nle])), a half-maximal effect (EC50) was put at 0.375 µM.

Take `CCCC[C@@H]1NC(=O)[C@H](Cc2cncnc2)NC(=O)[C@H](CCCn2ccnc2)N(C)C(=O)[C@H](Cc2ccccc2)OC(=O)C23CC(CNC(=O)[C@H](Cc4cccnc4)N(C)C(=O)[C@H](CCCC)NC(=O)[C@H](Cc4ccccc4F)OC1=O)(C2)C3` [compound 246, cyclo(FLac-NMeNvalmid-PyrimAla-Nle-F2FLac-Nle-NMe3Pal-amBCP)] (cyclo([NMe3Pal][X1][PhLac][NMeNva(5-imidazol-1-yl)][Ala(pyrimidin-5-yl)][Nle][X2][Nle])): a half-maximal effect (EC50) was put at 1.16 µM.

`CCCCCCCC[C@@H]1NC(=O)[C@H](Cc2ccc(O)cc2)NC(=O)[C@H](CC(C)C)NC(=O)[C@H](Cc2ccc(O)cc2)NC(=O)[C@H](CCCNC(=N)N)NC(=O)[C@H](Cc2ccccc2)NC(=O)CSC[C@@H](C(=O)NCC(=O)N[C@@H](CCCCN)C(=O)N[C@@H](CCCCN)C(N)=O)NC(=O)[C@H](Cc2ccccc2)N(C)C1=O` [compound 59, cyclo(-F-R-Y-L-Y-Aca-NMeF-C2-ClAc)] ({CH2CO}-FRYLY[Gly(octyl)][NMeF]CGKK-NH2; thioether N-8): the concentration giving a half-maximal response (EC50) was 0.812 µM.

In turn, `CCCC[C@@H]1NC(=O)[C@H](Cc2cccnc2)NC(=O)[C@H](C)N(C)C(=O)[C@H](Cc2ccccc2)OC(=O)C23CC(CNC(=O)[C@H](Cc4cnn(C)c4)N(C)C(=O)[C@H](CCCC)NC(=O)[C@H](Cc4ccccc4F)NC1=O)(C2)C3` [compound 403, cyclo(FLac-NMeA-3Pal-Nle-Phe2F-Nle-NMeAla4PyzlMe-amBCP)] (cyclo([3Pal][Nle][Phe(2-F)][Nle][X36][X1][PhLac][NMeA])) had an EC50 of 0.017 µM.

`C[C@H]1C(=O)N[C@@H](Cc2cncnc2)C(=O)N[C@@H](CC2CCC2)C(=O)N[C@@H](Cc2ccccc2F)C(=O)N[C@@H](CCC(C)(C)F)C(=O)N(C)[C@@H](Cc2ccccc2)C(=O)NCC23CC(C2)(C3)C(=O)O[C@@H](Cc2ccccc2)C(=O)N1C` [compound 225, cyclo(FLac-NMeA-PyrimAla-cBuA-Phe2F-hL3F-NMeF-amBCP)] (cyclo([Cba][Phe(2-F)][X11][NMeF][X1][PhLac][NMeA][Ala(pyrimidin-5-yl)])) registered a half-maximal effective concentration (EC50) of 0.00187 µM.

The molecule `C[C@H]1C(=O)N[C@@H](Cc2cncnc2)C(=O)N[C@@H](CC2CC2)C(=O)N[C@@H](Cc2ccccc2F)C(=O)N[C@@H](CC(F)F)C(=O)N(C)[C@@H](Cc2ccccc2)C(=O)NCC23CC(C2)(C3)C(=O)O[C@@H](Cc2ccccc2)C(=O)N1C` [compound 271, cyclo(FLac-NMeA-PyrimAla-cPrA-Phe2F-AbuF2-NMeF-amBCP)] (cyclo([Ala(cPr)][Phe(2-F)][Abu(4,4-F2)][NMeF][X1][PhLac][NMeA][Ala(pyrimidin-5-yl)])) had a half-maximal effective concentration (EC50) of 0.73 µM.

Consider `CCCC[C@@H]1NC(=O)[C@H](Cc2cncnc2)NC(=O)[C@H](CCCn2ccnc2)N(C)C(=O)[C@H](Cc2ccccc2)OC(=O)C23CC(CNC(=O)[C@H](Cc4ccccc4)N(C)C(=O)[C@H](CCCC)NC(=O)[C@H](Cc4ccccc4F)NC1=O)(C2)C3` (single isomer, unassigned) [compound 223, cyclo(FLac-NMeNvalmid-PyrimAla-Nle-Phe2F-Nle-NMeF-amBCP)], for which the EC50 stood at 0.0253 µM.

Regarding `CCCC[C@@H]1NC(=O)[C@H](Cc2cccnc2)NC(=O)[C@H](CCCn2ccnc2)N(C)C(=O)[C@H](Cc2ccccc2)NC(=O)[C@@H]2C[C@H]2CNC(=O)[C@H](Cc2cccnc2)N(C)C(=O)[C@H](CCCC)NC(=O)[C@H](Cc2ccccc2F)NC1=O` [compound 251, cyclo(F-NMeNvalmid-3Pal-Nle-Phe2F-Nle-NMe3Pal-tamcPr)] (cyclo(F[NMeNva(5-imidazol-1-yl)][3Pal][Nle][Phe(2-F)][Nle][NMe3Pal][X21])), the EC50 was found to be 0.272 µM.

Turning to `CCCCC[C@@H]1NC(=O)[C@H](Cc2ccc(OC)cc2)NC(=O)[C@H](CC2CCC2)NC(=O)[C@H](Cc2cncs2)NC(=O)[C@H](CCCNC(=N)N)NC(=O)[C@H](Cc2ccccc2)NC(=O)CSC[C@@](C)(C(N)=O)NC(=O)[C@H](Cc2ccccc2)N(C)C1=O` [compound 363, cyclo(F-R-TZAla-cBuA-TyrOMe-Ahp-NMeF-aMeCl-ClAc)] ({CH2CO}-FR[Ala(thiazol-5-yl)][Cba]Y(Me)[Ahp(2)][NMeF][αMeC]-NH2; thioether N-8), the EC50 was 0.0132 µM.

With `CCCC[C@@H]1NC(=O)[C@H](Cc2ccc(C(F)(F)F)nc2)NC(=O)[C@H](CCCn2ccnc2)N(C)C(=O)[C@H](Cc2ccccc2)OC(=O)C23CC(CNC(=O)[C@H](Cc4ccccc4)N(C)C(=O)[C@H](CCCC)NC(=O)[C@H](Cc4ccccc4F)NC1=O)(C2)C3` (single isomer, unassigned) [compound 218, cyclo(FLac-NMeNvalmid-4CF33Pal-Nle-Phe2F-Nle-NMeF-amBCP)], the half-maximal effective concentration (EC50) came out at 0.188 µM.

For the molecule `CCCCC[C@@H]1NC(=O)[C@H](Cc2ccc(OC)cc2)NC(=O)[C@H](CC2CCC2)NC(=O)[C@H](Cc2cccnc2)NC(=O)[C@H](CCCNC(=N)N)NC(=O)[C@H](Cc2ccccc2)NC(=O)CSC[C@@](C)(C(N)=O)NC(=O)[C@H](Cc2cncnc2)N(C)C1=O` [compound 376, cyclo(F-R-3Pal-cBuA-TyrOMe-Ahp-NMeAlaPyrim-aMeCl-ClAc)] ({CH2CO}-FR[3Pal][Cba]Y(Me)[Ahp(2)][X3][αMeC]-NH2; thioether N-8), the 50% effective concentration (EC50) turned out to be 0.0266 µM.

As for `CCCC[C@@H]1NC(=O)[C@H](Cc2ccccc2F)NC(=O)[C@H](CC2CCC2)NC(=O)[C@@H](Cc2cccnc2)NC(=O)[C@H](CCCNC(=N)N)NC(=O)[C@H](Cc2ccccc2)NC(=O)C23CC(C2)(C3)NC(=O)[C@H](Cc2cccnc2)N(C)C1=O` [compound 108, cyclo(F-R-d3Pal-cBuA-Phe2F-Nle-NMe3Pal-BCP)] (cyclo(FR[d3Pal][Cba][Phe(2-F)][Nle][NMe3Pal][X56])), the EC50 stood at 1.14 µM.

As for `CC(C)CC[C@@H]1NC(=O)[C@H](Cc2ccccc2F)NC(=O)[C@H](CC(C)(C)F)NC(=O)[C@H](Cc2cncnc2)NC(=O)[C@H](C)N(C)C(=O)[C@H](Cc2ccccc2)OC(=O)C23CC(CNC(=O)[C@H](Cc4ccccc4)N(C)C1=O)(C2)C3` [compound 136, cyclo(FLac-NMeA-PyrimAla-Leu3F-Phe2F-hL-NMeF-amBCP)] (cyclo([NMeA][Ala(pyrimidin-5-yl)][X40][Phe(2-F)][hLeu][NMeF][X1][PhLac])), it took 0.114 µM to reach a half-maximal effect (EC50).

As to `CCCC[C@@H]1NC(=O)[C@H](Cc2ccccc2F)NC(=O)[C@H](CC(C)C)NC(=O)[C@H](Cc2cncnc2)NC(=O)[C@H](C)N(C)C(=O)[C@H](Cc2ccccc2)OC(=O)C23CC(CNC(=O)[C@H](Cc4cccnc4)N(C)C1=O)(C2)C3` [compound 129, cyclo(FLac-NMeA-PyrimAla-L-Phe2F-Nle-NMe3Pal-amBCP)] (cyclo([PhLac][NMeA][Ala(pyrimidin-5-yl)]L[Phe(2-F)][Nle][NMe3Pal][X1])), the midpoint of the response, the EC50, lay at 0.00438 µM.

`CCCC[C@@H]1NC(=O)[C@H](Cc2cncnc2)NC(=O)[C@H](C)N(C)C(=O)[C@H](Cc2ccccc2)OC(=O)C23CC(CNC(=O)[C@H](Cc4ccc(C)cc4)N(C)C(=O)[C@H](CCCC)NC(=O)[C@H](Cc4ccccc4F)NC1=O)(C2)C3` [compound 171, cyclo(FLac-NMeA-PyrimAla-Nle-Phe2F-Nle-NMePhe4Me-amBCP)] (cyclo([NMeA][Ala(pyrimidin-5-yl)][Nle][Phe(2-F)][Nle][NMePhe(4-Me)][X1][PhLac])) gave an EC50 of 0.0191 µM.

As for `CC(C)C[C@@H]1NC(=O)[C@H](Cc2ccc(O)cc2)NC(=O)[C@H](CCCNC(=N)N)NC(=O)[C@H](Cc2ccccc2)NC(=O)CSC[C@@H](C(N)=O)NC(=O)[C@H](Cc2ccccc2)N(C)C(=O)[C@H](CCCCCN)NC(=O)[C@H](Cc2ccc(O)cc2)NC1=O` [compound 13, cyclo(F-R-Y-L-Y-hK-NMcF-Cl-ClAc)] ({CH2CO}-FRYLY[hLys][NMeF]C-NH2; thioether N-8), the response was half-maximal at 5.63 µM (EC50).

As for `CCCC[C@@H]1NC(=O)[C@H](Cc2ccccc2F)NC(=O)[C@H](CCCC)OC(=O)[C@H](Cc2cccnc2)NC(=O)[C@H](CCN=[N+]=[N-])N(C)C(=O)[C@H](Cc2ccccc2)NC(=O)C23CC(CNC(=O)[C@H](Cc4cccnc4)N(C)C1=O)(C2)C3` [compound 250, cyclo(F-NMeDabN3-3Pal-NleLac-Phe2F-Nle-NMe3Pal-amBCP)] (cyclo(F[NMeAha][3Pal][X9][Phe(2-F)][Nle][NMe3Pal][X1])), the EC50 worked out at 3.88 µM.

For the molecule `CCCC[C@@H]1NC(=O)[C@H](Cc2cccnc2)NC(=O)[C@H](CCN=[N+]=[N-])N(C)C(=O)[C@H](Cc2ccccc2)OC(=O)C23CC(CNC(=O)[C@H](Cc4cccnc4)N(C)C(=O)[C@H](CCCC)NC(=O)[C@H](Cc4ccccc4F)OC1=O)(C2)C3` [compound 238, cyclo(FLac-NMeDabN3-3Pal-Nle-F2FLac-Nle-NMe3Pal-amBCP)] (cyclo([3Pal][Nle][X2][Nle][NMe3Pal][X1][PhLac][NMeAha])), the concentration for a half-maximal effect (EC50) came to 5.59 µM.

The record behind these values is US20260001914A1, “MACROCYCLIC PEPTIDES TARGETING KRAS” (Merck Sharp & Dohme LLC, priority 2022, published 2026).
